According to patent publication US7314866B2, “Ku-70-derived Bax-suppressing peptides and use thereof for the protection of damaged cells” (Bloodcenter of Wisconsin, Inc., priority 2002, dated 2008):
“Also recorded” adds a separate entry of the source. Where a SMILES comes first, the peptide text is derived from it. Where no end group is shown, it is not given here. The star is where a group is joined. FITC = O=C1OC2(c3ccc(O)cc3Oc3cc(O)ccc32)c2ccc(NC(=S)*)cc21; Biotin = O=C1N[C@H]2[C@H](CS[C@H]2CCCCC(=O)*)N1; Cbz = O=C(OCc1ccccc1)*; CH2F = FC*

What was measured:
endogenous Bax = biological target: T1, endogenous Bax (Mus musculus, UniProt Q07813); experiment: Scatchard analysis of the binding of FITC-V5 and Bax; settings: Bax-immunodepleted cell lysates
T1 construct: endogenous in cells; host or cells: Ku70-deficient mouse embryonic fibroblasts, cytosol fraction
Procedure: (§1) FIG. 4A: One day following UVC-irradiation or STS-treatment in the absence (UV and STS) or presence of 200 uM negative control (NC) peptide (UV+NC and STS+NC) or V5 peptide (UV+V5 and STS+V5), subcellular fractionation of HeLa cells (10^6 cells) was performed. FoF1 ATP synthase subunit α (F1α) was used to mark the mitochondrial fraction. HM stands for “Heavy Membrane” fraction containing mitochondria. FIG. 4C: cytochrome c release from mitochondria is inhibited by BIP, but not z-VAD-fmk. HeLa cells (10^6 cells) were treated with 200 nM STS in the presence or absence of 200 uM negative control (NC) peptide, V5 peptide, or z-VAD-fmk for 24 hours. Cytochrome c released from mitochondria into cytosol was analyzed by subcellular fractionation followed by Western blot analysis of cytochrome c (cyt c) as well as mitochondrial FoF1-ATP-synthase subunit F1α (F1α) as described in Methods. […] Caspase activity was assessed as described in Methods. […]
Ku70-deficient MEFs (10^7 cells) were lysed in 200 ul of “detergent-free hypotonic buffer” (hypotonic (5 mM NaCl) phosphate buffered saline, pH 7.4) containing protease inhibitors (100 times dilution of Protease Inhibitors Cocktail; Sigma) according to the previously reported method (Hsu and Youle, supra, 1998). […] Kd was calculated by Scatchard plot. […]

HEK293T cells = experiment: Bax-induced apoptosis in HEK293T cells (pcDNA3-Bax transfection, Hoechst staining); format: cell-based, human; settings: added to the culture medium
Procedure: FIG. 1 illustrates that new peptides designed from Ku70 show anti-Bax activity. FIG. 1A: scheme of Ku70 full-length (Ku70 wt), Ku701-577 (Ku70Δ578–609), or Ku70578-609 (Ku70Δ1–577). FIG. 1C: HEK293T cells were transfected with 1.0 ug of pCMV-2B-control vector (Control) or pcDNA3-Bax (Bax) together with 2.0 ug of pCMV-2B-Ku70 wt (Ku70 wt), pCMV-2B-Ku701-577 (Ku701-577), or pCMV-2B-Ku70578-609 (Ku70578-609). All the cells were also co-transfected with 0.5 ug pEGFP for the marking of transfected cells. Apoptosis in the transfected cells was analyzed 24 hours following transfection with Hoechst dye staining of the nucleus as described in Methods. FIG. 1D: HEK293T cells were incubated with 200 uM peptide composed of Ku70578-587 or Ku70596-600 for 4 hours using BioPorter reagent, and then transfected with 1.0 ug of pCDNA3-control vector (Control) or pcDNA3-Bax (Bax). The number of apoptotic cells was determined as described in FIG. 1C. FIG. 1E: HEK293T cells (10^6 cells) were incubated with 200 uM IPMIK (negative control peptide) or VPMLK (V5) and PMLKE (P5) peptides at the indicated concentrations for 1 hour and then incubated cells were transfected with 1.0 ug of pcDNA3-Bax. Also, unincubated cells were transfected with 1.0 ug of pcDNA3-Bax in the presence or absence of 200 uM z-VAD-fmk. The number of apoptotic cells was determined as described in FIG. 1C. FIG. 1F: Summary of the anti-Bax activity and sequence of all peptides used.
HEK293T and HeLa cells were cultured in MEM supplemented with 10% fetal bovine serum (FBS) and Du145 cells and mouse embryonic fibroblasts (MEFs) were in DMEM with 10% FBS. Transfection of the plasmids was performed by SuperFect (Qiagen) according to the manufacturer's manual. Apoptosis was induced by pcDNA3-human Bax (Bax-encoding plasmid)-transfection, Staurosporin (STS)-treatment and UVC-irradiation. The amount of the plasmids, the concentration of STS, and the energy of UVC-irradiation are described in the figure legends. Apoptosis in the transfected cells was analyzed as follows: A plasmid encoding enhanced green fluorescent protein (EGFP) (0.5 ug to 10^6 cells) was transfected to all the groups to mark the transfected cells. After the treatment, cells were stained with Hoechst dye and cells with apoptotic nuclei were counted in GFP-expressing cells under the fluorescent microscope as described by Matsuyama, et al., J. Biol. Chem. 273:30995–31001, 1998. Each point in the figures showing percentages of apoptosis represents the mean +/−SE of three experiments. Caspase activities of cells were measured by detecting the cleavage of fluorogenic substrate of Caspase (DEVD-afc) as previously described.
BioPorter-based peptide delivery was performed 4 hours before apoptosis induction.

Caspase = Caspase activity (DEVD-afc cleavage); format: cell-based, human; settings: HeLa cells, 200 nM STS, 200 uM, 24 hours
Procedure: as §1
HEK293T and HeLa cells were cultured in MEM supplemented with 10% fetal bovine serum (FBS) and Du145 cells and mouse embryonic fibroblasts (MEFs) were in DMEM with 10% FBS. […] Apoptosis in the transfected cells was analyzed as follows: A plasmid encoding enhanced green fluorescent protein (EGFP) (0.5 ug to 10^6 cells) was transfected to all the groups to mark the transfected cells. […]

Bax = experiment: Co-precipitation of biotin-labeled peptides and endogenous Bax using streptavidin beads; format: binding, human; settings: HEK293T lysates, CHAPS buffer
Bak = biological target: T2, Bak (human, UniProt Q16611 2-211); experiment: streptavidin bead pull-down from HEK293T CHAPS lysates, Western blot of Bak
T2 sequence (looked up): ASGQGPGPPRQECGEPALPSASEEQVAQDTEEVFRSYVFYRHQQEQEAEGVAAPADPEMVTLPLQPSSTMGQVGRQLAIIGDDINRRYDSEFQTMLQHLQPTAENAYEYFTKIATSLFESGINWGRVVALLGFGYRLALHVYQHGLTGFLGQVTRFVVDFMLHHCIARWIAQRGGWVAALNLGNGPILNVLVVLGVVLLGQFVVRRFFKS

human Bax = biological target: T3, human Bax (human, UniProt Q07812 1-192); experiment: conclusion drawn from the biotin-peptide streptavidin pull-down
T3 construct: Protein in cell lysates or cells, not purified; also called endogenous Bax; pcDNA3-Bax (human)
Procedure: The interaction of BIP and Bax was confirmed by experiments using the system of biotin-labeled BIP and streptavidin beads. Biotin-labeled BIP (biotin-VPMLK; SEQ ID NO: 1), but not negative control peptide (biotin-IPMIK; SEQ ID NO: 5) precipitated Bax from the cell lysates when the streptavidin beads were added to the samples.
Endogenous protein: HEK293T (10^7 cells) were lysed in 200 ul of "CHAPS-based buffer" (150 mM NaCl, 10 mM Hepes, pH 7.4, 1.0% CHAPS) containing protease inhibitors (100 times dilution of Protease Inhibitors Cocktail; Sigma) according to the previously reported method (Hsu and Youle, *J. Biol. Chem.* 273:10777–10783, 1998). After pre-cleaning of 600 ul of the sample with 50 ul of Protein G-Sepharose at 4° C. for 1 hour, immunoprecipitations were performed by incubating 200 ul of lysates with 20 ul of Protein G-Sepharose preabsorbed with 2 ug of anti-Bax polyclonal (BD-Pharmingen) or anti-Ku70 monoclonal antibody (BD-Pharmingen) at 4° C. for 2 hours. In some cases, 2 ug of anti-Bax monoclonal antibody (clone 6A7, BD Pharmingen) was used to detect active form of Bax. […]

T3 sequence (Q07812 whole entry): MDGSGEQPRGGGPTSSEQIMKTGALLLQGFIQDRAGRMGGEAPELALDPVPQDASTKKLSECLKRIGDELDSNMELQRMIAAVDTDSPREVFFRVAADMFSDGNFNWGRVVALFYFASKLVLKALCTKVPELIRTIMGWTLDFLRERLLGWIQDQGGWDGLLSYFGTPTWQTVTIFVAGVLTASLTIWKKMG
T1 sequence (Q07813 whole entry): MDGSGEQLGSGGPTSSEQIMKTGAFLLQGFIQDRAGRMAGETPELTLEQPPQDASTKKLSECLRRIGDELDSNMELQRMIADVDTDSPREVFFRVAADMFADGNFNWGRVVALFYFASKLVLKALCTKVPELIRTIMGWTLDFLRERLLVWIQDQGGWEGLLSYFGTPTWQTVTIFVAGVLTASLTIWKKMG

Molecule: CSCC[C@H](NC(=O)[C@@H]1CCCN1C(=O)[C@@H](NC(=S)Nc1ccc2c(c1)C(=O)OC21c2ccc(O)cc2Oc2cc(O)ccc21)C(C)C)C(=O)N[C@@H](CC(C)C)C(=O)N[C@@H](CCCCN)C(=O)O [FITC-labeled BIP] ({FITC}-VPMLK-OH; N-terminus and C-terminus assumed)
- Binding of FITC peptide to cellular components (endogenous Bax): No significant binding

Molecule: COC(=O)C[C@H](NC(=O)[C@H](C)NC(=O)[C@@H](NC(=O)OCc1ccccc1)C(C)C)C(=O)CF [z-VAD-fmk] (Cbz-Val-Ala-Asp(OMe)-CH2F)
- Suppression of Bax-induced apoptosis in cell culture (HEK293T cells): showed anti-apoptotic activities
- Suppression of Caspase activation (Caspase): suppresses STS-induced Caspase activation

Molecule: IPMIK [mutant of V5 with V and L changed to I, used as negative control peptide, reference compound]
- Suppression of Bax-induced apoptosis in cell culture (HEK293T cells): lost its activity to suppress apoptosis; also recorded: did not suppress Bax-mediated cell death
- Interaction with Bax (precipitation from cell lysates) (Bax): fails to interact with Bax

B1: Biotin-labeled BIP (biotin-VPMLK; SEQ ID NO: 1) (peptide)
peptide: Biotin-VPMLK
notes: also called biotin-labeled V5 peptide (BIP)
- binding result (Bak): no binding (tested: 200 uM)

B2: IPMIK (SEQ ID NO: 5) negative control (NC) peptide (peptide)
peptide: IPMIK
notes: also called negative control peptide; mutant peptide IPMIK
- binding result (human Bax): no binding
